Experimental data as given in ChEMBL document CHEMBL1201862, “PubChem BioAssay data set” (2004).
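Where inhibition never reached the appropriate level, the endpoint shown equals the highest concentration tested. Otherwise, values were interpolated linearly from a five-concentration, 48-hour dose response in 96-well plates. At the GI50, growth is halved.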 Active and inactive are the calls of the source. No stated cut-off is given here; in the data, active = GI50 up to about 1.1 µM and inactive = higher.

Tests used:
Test in all cases: inhibition of tumour cell growth, NCI panel, 48 h
HT-29 = system: HT-29
HL-60 = system: HL-60
RXF 393 = system: RXF 393
M14 = system: M14
SNB-19 = system: SNB-19
NCI/ADR-RES = system: NCI/ADR-RES
OVCAR-8 = system: OVCAR-8
MOLT-4 = system: MOLT-4
SN12C = system: SN12C
UACC-62 = system: UACC-62
SF-539 = system: SF-539
DU-145 = system: DU-145
U-251 = system: U-251
EKVX = system: EKVX
PC-3 = system: PC-3
K562 = system: K562
MCF7 = system: MCF7
MDA-MB-435 = system: MDA-MB-435
SK-MEL-28 = system: SK-MEL-28
TK-10 = system: TK-10
A549 = system: A549
LOX IMVI = system: LOX IMVI
HCT-116 = system: HCT-116
ACHN = system: ACHN
UACC-257 = system: UACC-257
UO-31 = system: UO-31
NCI-H226 = system: NCI-H226
RPMI-8226 = system: RPMI-8226
KM12 = system: KM12
CCRF-CEM = system: CCRF-CEM
COLO 205 = system: COLO 205
T47D = system: T47D
BT-549 = system: BT-549
SW-620 = system: SW-620
NCI-H23 = system: NCI-H23
SNB-75 = system: SNB-75
SK-MEL-5 = system: SK-MEL-5
SF-295 = system: SF-295
SK-MEL-2 = system: SK-MEL-2
HCC 2998 = system: HCC 2998
MDA-MB-231 = system: MDA-MB-231
HOP-62 = system: HOP-62
IGROV-1 = system: IGROV-1
Malme-3M = system: Malme-3M
SR = system: SR
NCI-H522 = system: NCI-H522
A498 = system: A498
SK-OV-3 = system: SK-OV-3
SF-268 = system: SF-268
NCI-H460 = system: NCI-H460
HCT-15 = system: HCT-15
OVCAR-3 = system: OVCAR-3
HOP-92 = system: HOP-92
786-0 = system: 786-0
OVCAR-4 = system: OVCAR-4
CAKI-1 = system: CAKI-1
OVCAR-5 = system: OVCAR-5
Hs-578T = system: Hs-578T
MDA-N = system: MDA-N

Measured: GI50

CC(=O)OCC1OC(N2C(c3ccccc3)=CC(c3ccco3)C(C#N)=C2S)C(OC(C)=O)C(OC(C)=O)C1OC(C)=O (stereo unspecified)
inactive: HT-29 5.94 µM | HL-60 10.4 µM | RXF 393 4.06 µM | M14 4.65 µM | SNB-19 11.9 µM | NCI/ADR-RES 4.78 µM | OVCAR-8 2.83 µM | MOLT-4 > 22.2 µM | SN12C 4.22 µM | UACC-62 13.6 µM | SF-539 2.06 µM | DU-145 19.7 µM | U-251 2.54 µM | EKVX > 29 µM | PC-3 11.5 µM | K562 4.25 µM | MCF7 25.5 µM | MDA-MB-435 8.11 µM | SK-MEL-28 8.79 µM | TK-10 18.7 µM | A549 9.44 µM | LOX IMVI 5.74 µM | HCT-116 3.18 µM | ACHN 7.85 µM | UACC-257 > 32.1 µM | UO-31 9.23 µM | NCI-H226 6.71 µM | RPMI-8226 9.1 µM | KM12 15.3 µM | CCRF-CEM 12.6 µM | COLO 205 3 µM | T47D 30.4 µM | BT-549 3.59 µM | SW-620 1.36 µM | NCI-H23 5.79 µM | SNB-75 2.55 µM | SK-MEL-5 3.01 µM | SF-295 14.4 µM | SK-MEL-2 28.8 µM | HCC 2998 14.8 µM | MDA-MB-231 3.13 µM | HOP-62 6.27 µM | IGROV-1 27.4 µM | Malme-3M 3.04 µM | SR 7.85 µM | NCI-H522 16.6 µM | A498 15.2 µM | SK-OV-3 21.7 µM | SF-268 4.63 µM | NCI-H460 14.7 µM | OVCAR-3 5.75 µM | HOP-92 6.22 µM | 786-0 2.03 µM | OVCAR-4 3.33 µM | CAKI-1 14.7 µM | OVCAR-5 6.9 µM | Hs-578T 2.17 µM | MDA-N 11.3 µM
> 100 µM: HCT-15

N#Cc1c(N2CCCC2)ncn(-c2ccccc2)c1=S
> 100 µM: HCT-15
inactive: HT-29 > 100 µM | HL-60 > 100 µM | RXF 393 > 100 µM | M14 > 100 µM | SNB-19 > 100 µM | NCI/ADR-RES > 100 µM | OVCAR-8 > 100 µM | MOLT-4 > 100 µM | SN12C > 100 µM | UACC-62 19.5 µM | SF-539 > 100 µM | DU-145 > 100 µM | U-251 > 100 µM | EKVX > 100 µM | PC-3 > 100 µM | K562 > 100 µM | MCF7 > 100 µM | MDA-MB-435 > 100 µM | SK-MEL-28 > 100 µM | TK-10 > 100 µM | A549 > 100 µM | LOX IMVI > 100 µM | HCT-116 > 100 µM | ACHN > 100 µM | UACC-257 > 100 µM | UO-31 > 100 µM | NCI-H226 > 100 µM | RPMI-8226 > 100 µM | KM12 > 100 µM | CCRF-CEM > 100 µM | COLO 205 > 100 µM | T47D > 100 µM | BT-549 > 100 µM | SW-620 > 100 µM | NCI-H23 > 100 µM | SNB-75 94.8 µM | SK-MEL-5 > 100 µM | SF-295 > 100 µM | SK-MEL-2 > 100 µM | HCC 2998 > 100 µM | MDA-MB-231 > 100 µM | HOP-62 > 100 µM | IGROV-1 > 100 µM | Malme-3M > 100 µM | SR > 100 µM | NCI-H522 > 100 µM | A498 > 100 µM | SK-OV-3 > 100 µM | SF-268 > 100 µM | NCI-H460 > 100 µM | OVCAR-3 > 100 µM | HOP-92 > 100 µM | 786-0 > 100 µM | OVCAR-4 > 100 µM | CAKI-1 > 100 µM | OVCAR-5 > 100 µM | Hs-578T > 100 µM | MDA-N > 100 µM

O=C1CCCC1C(O)(C(F)(F)Cl)C(F)(F)Cl (stereo unspecified)
inactive: HT-29 > 10 µM | HL-60 > 10 µM | RXF 393 > 10 µM | M14 > 10 µM | SNB-19 > 10 µM | NCI/ADR-RES > 10 µM | OVCAR-8 > 10 µM | MOLT-4 > 10 µM | SN12C > 10 µM | UACC-62 > 10 µM | SF-539 > 10 µM | DU-145 > 10 µM | U-251 > 10 µM | EKVX > 10 µM | PC-3 > 10 µM | K562 > 10 µM | MCF7 > 10 µM | MDA-MB-435 > 10 µM | SK-MEL-28 > 10 µM | TK-10 > 10 µM | A549 > 10 µM | LOX IMVI > 10 µM | HCT-116 > 10 µM | ACHN > 10 µM | UACC-257 > 10 µM | NCI-H226 > 10 µM | RPMI-8226 > 10 µM | KM12 > 10 µM | CCRF-CEM > 10 µM | COLO 205 > 10 µM | T47D > 10 µM | BT-549 > 10 µM | SW-620 > 10 µM | NCI-H23 > 10 µM | SNB-75 > 10 µM | SK-MEL-5 > 10 µM | SF-295 > 10 µM | SK-MEL-2 > 10 µM | HCC 2998 > 10 µM | MDA-MB-231 > 10 µM | HOP-62 > 10 µM | IGROV-1 > 10 µM | Malme-3M > 10 µM | SR > 10 µM | NCI-H522 > 10 µM | A498 > 10 µM | SK-OV-3 > 10 µM | SF-268 > 10 µM | NCI-H460 > 10 µM | OVCAR-3 > 10 µM | HOP-92 > 10 µM | 786-0 > 10 µM | OVCAR-4 > 10 µM | CAKI-1 > 10 µM | OVCAR-5 > 10 µM | Hs-578T > 10 µM | MDA-N > 10 µM
> 10 µM: HCT-15
